What was measured:
Experiment in all cases: relative viability (nuclei count vs DMSO), 5 days (fraction); higher = more cells survive
AZD5582 + Palbociclib = compound: C[C@@H](C(=O)N[C@@H](C1CCCCC1)C(=O)N2CCC[C@H]2C(=O)N[C@@H]3[C@@H](CC4=CC=CC=C34)OCC#CC#CCO[C@@H]5CC6=CC=CC=C6[C@@H]5NC(=O)[C@@H]7CCCN7C(=O)[C@H](C8CCCCC8)NC(=O)[C@H](C)NC)NC [AZD5582] + CC(=O)c1c(C)c2cnc(Nc3ccc(N4CCNCC4)cn3)nc2n(C2CCCC2)c1=O [Palbociclib] (partner 0.5 µM)
Outline: (§1)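 Nuclei were stained with Hoechst during a one-step fixation (final 0.05% Triton X-100, 1% formaldehyde, 1 ug/ml Hoechst) carried out 5 days after dosing, then counted on 4× images. The cells, lung cancer lines in 1536-well plates, had been dosed by pin tool the day after seeding with one drug alone or a fixed anchor-drug dose plus five library-drug doses (not always all listed) in √10 steps. Relative viability is the nuclei count in treated wells divided by that in vehicle wells, and each value is the median of duplicate plates.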

[1] = compound: Cn1nnc2c(C(N)=O)ncn2c1=O [Temozolomide] + CC(=O)Nc1cccc(-n2c(=O)n(C3CC3)c(=O)c3c(Nc4ccc(I)cc4F)n(C)c(=O)c(C)c32)c1 [Trametinib] (partner 0.02 µM)
Outline: as §1

[2] = compound: Cn1nnc2c(C(N)=O)ncn2c1=O [Temozolomide] + CC(=O)c1c(C)c2cnc(Nc3ccc(N4CCNCC4)cn3)nc2n(C2CCCC2)c1=O [Palbociclib] (partner 0.5 µM)
Outline: as §1

[3] = compound: Cn1nnc2c(C(N)=O)ncn2c1=O [Temozolomide] + CS(=O)(=O)N1CCN(Cc2cc3nc(-c4cccc5[nH]ncc45)nc(N4CCOCC4)c3s2)CC1 [Pictilisib] (partner 1 µM)
Outline: as §1

Row | Cell Line | relative viability (AZD5582 + Palbociclib; first compound 0.001581 µM) | relative viability (AZD5582 + Palbociclib; first compound 0.005 µM) | relative viability (AZD5582 + Palbociclib; first compound 0.01581 µM) | relative viability (AZD5582 + Palbociclib; first compound 0.05 µM) | relative viability ([1]; first compound 0.2 µM) | relative viability ([1]; first compound 0.6325 µM) | relative viability ([1]; first compound 2 µM) | relative viability ([1]; first compound 6.325 µM) | relative viability ([1]; first compound 20 µM) | relative viability ([2]; first compound 0.2 µM) | relative viability ([2]; first compound 0.6325 µM) | relative viability ([2]; first compound 2 µM) | relative viability ([2]; first compound 6.325 µM) | relative viability ([2]; first compound 20 µM) | relative viability ([3]; first compound 0.2 µM) | relative viability ([3]; first compound 0.6325 µM) | relative viability ([3]; first compound 2 µM) | relative viability ([3]; first compound 6.325 µM) | relative viability ([3]; first compound 20 µM)
1 | LU99A | 0.455 | 0.465 | 0.412 | 0.534 | 0.555 | 0.522 | 0.6 | 0.555 | 0.61 | 0.447 | 0.42 | 0.472 | 0.387 | 0.388 | 0.325 | 0.351 | 0.324 | 0.343 | 0.335
2 | LXF-289 | 0.575 | 0.585 | 0.577 | 0.598 | 0.693 | 0.693 | 0.683 | 0.653 | 0.667 | 0.616 | 0.626 | 0.606 | 0.579 | 0.564 | 0.814 | 0.788 | 0.823 | 0.737 | 0.655
3 | NCI-H23 | 0.393 | 0.374 | 0.419 | 0.305 | 0.353 | 0.348 | 0.427 | 0.381 | 0.358 | 0.59 | 0.55 | 0.504 | 0.403 | 0.433 | 0.563 | 0.508 | 0.517 | 0.401 | 0.454
4 | NCI-H322M | 0.526 | 0.521 | 0.456 | 0.605 | 0.446 | 0.526 | 0.569 | 0.532 | 0.451 | 0.451 | 0.483 | 0.465 | 0.441 | 0.414 | – | 0.555 | 0.545 | 0.483 | 0.363
5 | NCI-H358 | 0.124 | 0.156 | 0.14 | 0.136 | 0.108 | 0.143 | 0.131 | 0.139 | 0.145 | 0.137 | 0.143 | 0.128 | 0.136 | 0.131 | 0.342 | 0.392 | 0.348 | 0.305 | 0.283
6 | NCI-H441 | 0.232 | 0.224 | 0.206 | 0.187 | 0.543 | 0.642 | 0.478 | 0.425 | 0.459 | 0.23 | 0.211 | 0.211 | 0.245 | 0.226 | 0.437 | 0.443 | 0.543 | 0.375 | 0.51
7 | NCI-H460 | 0.102 | 0.189 | 0.211 | 0.148 | 0.136 | 0.236 | 0.158 | 0.0735 | 0.134 | 0.159 | 0.175 | 0.152 | 0.267 | 0.183 | 0.326 | 0.318 | 0.472 | 0.272 | 0.309
8 | NCI-H520 | 0.193 | 0.256 | 0.238 | 0.223 | 0.715 | 0.717 | 0.676 | 0.683 | 0.597 | 0.215 | 0.225 | 0.228 | 0.278 | 0.243 | 0.243 | 0.304 | 0.312 | 0.305 | 0.326
9 | NCI-H647 | 0.26 | 0.39 | 0.394 | 0.387 | 0.528 | 0.537 | 0.56 | 0.353 | 0.227 | 0.374 | 0.502 | 0.375 | 0.342 | 0.188 | 0.419 | 0.444 | 0.406 | 0.272 | 0.216
10 | NCI-H650 | 0.328 | 0.287 | 0.255 | 0.245 | 0.954 | 1.02 | 1.38 | 0.869 | 1.01 | 0.373 | 0.328 | 0.319 | 0.329 | 0.314 | 0.875 | 0.97 | 0.943 | 0.865 | 0.908
11 | NCI-H661 | 0.403 | 0.44 | 0.464 | 0.429 | 0.513 | 0.564 | 0.654 | 0.528 | 0.562 | 0.344 | 0.393 | 0.437 | 0.411 | 0.402 | 0.313 | 0.371 | 0.39 | 0.388 | 0.39
12 | NCI-H727 | 0.612 | 0.647 | 0.635 | 0.614 | – | 0.426 | 0.397 | 0.435 | 0.403 | – | 0.579 | 0.676 | 0.715 | 0.703 | 0.324 | 0.316 | 0.364 | 0.286 | 0.371
13 | NCI-H838 | 0.214 | 0.257 | 0.191 | 0.213 | 0.498 | 0.559 | 0.586 | 0.482 | 0.585 | 0.23 | 0.237 | 0.226 | 0.25 | 0.252 | 0.45 | 0.48 | 0.577 | 0.446 | 0.584
14 | NCI-H1355 | 0.378 | 0.415 | 0.386 | 0.357 | 0.436 | 0.464 | 0.483 | 0.452 | 0.403 | 0.35 | 0.4 | 0.413 | 0.404 | 0.361 | 0.433 | 0.46 | 0.427 | 0.38 | 0.39
15 | NCI-H1395 | 0.578 | 0.688 | – | 0.76 | 0.815 | 1.06 | 1.17 | 0.986 | 1.02 | 0.532 | 0.62 | 0.663 | 0.616 | 0.535 | 0.554 | 0.631 | 0.719 | 0.612 | 0.572
16 | NCI-H1437 | 0.266 | 0.307 | 0.278 | 0.31 | 0.539 | 0.544 | 0.561 | 0.594 | 0.565 | 0.292 | 0.336 | 0.31 | 0.329 | 0.325 | 0.474 | 0.539 | 0.502 | 0.521 | 0.44
